Patent US20090018149A1, “4,5,6,7-tetrahydrobenzo[b]thiophene derivatives and methods for medical intervention against mycobacterial infections” (priority 2002, published 2009)

Test system: M. smegmatis expressing wildtype PknG
Format: cell-based, Mycobacterium smegmatis
Details: 10 μM compound, RAW cells, 24 h postinfection; mutant or vector control cleared up to 85%, wild type pknG only 25%

Question: Which “clearance of PknG expressing M. smegmatis in macrophages” value does the source give for `NC(=O)c1c(NC(=O)C2CC2)sc2c1CCCC2` [Compound 237, 2-(Cyclopropanecarbonyl-amino)-4,5,6,7-tetrahydro-benzo[b]thiophene-3-carboxylic acid amide] here?
Answer: The value was “as efficient as observed with the mutant or vector control transformants”.
